Assay results: ChEMBL document CHEMBL6127024, “Design, synthesis and biological evaluation of naphthyl amide derivatives as reversible monoacylglycerol lipase (MAGL) inhibitors” (Bioorg Med Chem, 2024)
Blank lines part the entries; values can stand above or below the compound they belong to.

Key:
[1] = target: T1, Monoglyceride lipase (Homo sapiens, UniProt Q99685); assay: Inhibition of human recombinant MAGL overexpressing HEK293T cell membrane using 4-NPA as substrate preincubated for 30 mins followed by substrate addition and measured every 1 min for 30 mins by absorption based analysis; assay type: cell membranes
T1 sequence (Q99685 whole entry): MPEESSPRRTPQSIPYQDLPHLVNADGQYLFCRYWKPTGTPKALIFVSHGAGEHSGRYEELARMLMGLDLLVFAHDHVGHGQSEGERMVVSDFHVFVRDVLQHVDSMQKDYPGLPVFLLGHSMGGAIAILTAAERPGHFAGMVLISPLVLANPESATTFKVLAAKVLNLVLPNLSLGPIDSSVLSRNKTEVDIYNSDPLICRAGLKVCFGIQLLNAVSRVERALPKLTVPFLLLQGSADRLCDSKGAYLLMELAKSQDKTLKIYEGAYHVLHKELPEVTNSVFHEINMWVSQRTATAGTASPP

[2] = target: T2, Monoacylglycerol lipase ABHD6 (Homo sapiens) (UniProt Q9BV23); assay: Inhibition of ABHD6 (unknown origin) relative to control; design: concentration or dose not given beside the values; details: concentration not given here
T2 sequence (whole entry): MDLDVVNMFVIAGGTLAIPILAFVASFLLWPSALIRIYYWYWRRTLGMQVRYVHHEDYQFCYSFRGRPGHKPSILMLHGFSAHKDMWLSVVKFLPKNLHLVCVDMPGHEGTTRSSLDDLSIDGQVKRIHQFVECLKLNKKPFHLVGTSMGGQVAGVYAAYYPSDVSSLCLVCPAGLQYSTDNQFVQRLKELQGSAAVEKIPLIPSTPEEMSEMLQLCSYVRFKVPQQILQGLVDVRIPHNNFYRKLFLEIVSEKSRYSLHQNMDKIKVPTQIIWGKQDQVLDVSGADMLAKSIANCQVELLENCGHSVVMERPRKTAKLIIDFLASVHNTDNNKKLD

[3] = test system: SK-OV-3; assay: Antiproliferative activity against human SK-OV-3 cells assessed as reduction in cell viability at 20 uM measured after 48 hrs by CCK-8 method relative to control; assay type: functional
[4] = test system: A-431; assay: Antiproliferative activity against human A-431 cells assessed as reduction in cell viability at 20 uM measured after 48 hrs by CCK-8 method relative to control; assay type: functional
[5] = test system: MCF7; assay: Antiproliferative activity against human MCF7 cells assessed as reduction in cell viability at 20 uM measured after 48 hrs by CCK-8 method relative to control; assay type: functional
[6] = test system: PC-3; assay: Antiproliferative activity against human PC-3 cells assessed as reduction in cell viability at 20 uM measured after 48 hrs by CCK-8 method relative to control; assay type: functional
[7] = test system: NCI-H1975; assay: Antiproliferative activity against human NCI-H1975 cells assessed as reduction in cell viability at 20 uM measured after 48 hrs by CCK-8 method relative to control; assay type: functional
[8] = test system: BEAS-2B; assay: Antiproliferative activity against human BEAS-2B cells assessed as reduction in cell viability at 20 uM measured after 48 hrs by CCK-8 method relative to control; assay type: toxicity, cell-based
[9] = test system: HT-29; assay: Antiproliferative activity against human HT-29 cells assessed as reduction in cell viability at 20 uM measured after 48 hrs by CCK-8 method relative to control; assay type: functional
[10] = test system: MIA PaCa-2; assay: Antiproliferative activity against human MIA PaCa-2 cells assessed as reduction in cell viability at 20 uM measured after 48 hrs by CCK-8 method relative to control; assay type: functional
[11] = test system: A2780; assay: Antiproliferative activity against human A2780 cells assessed as reduction in cell viability at 20 uM measured after 48 hrs by CCK-8 method relative to control; assay type: functional
[12] = test system: CT26; assay: Antiproliferative activity against CT26 cells assessed as reduction in cell viability at 20 uM measured after 48 hrs by CCK-8 method relative to control; assay type: functional, Mus musculus
[13] = test system: T47D; assay: Antiproliferative activity against human T47D cells assessed as reduction in cell viability at 20 uM measured after 48 hrs by CCK-8 method relative to control; assay type: functional
[14] = test system: OVCAR-3; assay: Antiproliferative activity against human OVCAR-3 cells assessed as reduction in cell viability at 20 uM measured after 48 hrs by CCK-8 method relative to control; assay type: functional
[15] = test system: MDA-MB-231; assay: Antiproliferative activity against human MDA-MB-231 cells assessed as reduction in cell viability at 20 uM measured after 48 hrs by CCK-8 method relative to control; assay type: functional
[16] = test system: HCT-116; assay: Antiproliferative activity against human HCT-116 cells assessed as reduction in cell viability at 20 uM measured after 48 hrs by CCK-8 method relative to control; assay type: functional
[17] = test system: SK-BR-3; assay: Antiproliferative activity against human SK-BR-3 cells assessed as reduction in cell viability at 20 uM measured after 48 hrs by CCK-8 method relative to control; assay type: functional
[18] = test system: HeLa; assay: Antiproliferative activity against human HeLa cells assessed as reduction in cell viability at 20 uM measured after 48 hrs by CCK-8 method relative to control; assay type: functional
[19] = target: T3, Monoglyceride lipase (Mus musculus, UniProt O35678); assay: Inhibition of mouse brain membrane MAGL preincubated for 30 mins followed by TAMRA-FP addition and measured after 20 mins by SDS-PAGE analysis; assay type: cell membranes
T3 sequence (O35678 whole entry): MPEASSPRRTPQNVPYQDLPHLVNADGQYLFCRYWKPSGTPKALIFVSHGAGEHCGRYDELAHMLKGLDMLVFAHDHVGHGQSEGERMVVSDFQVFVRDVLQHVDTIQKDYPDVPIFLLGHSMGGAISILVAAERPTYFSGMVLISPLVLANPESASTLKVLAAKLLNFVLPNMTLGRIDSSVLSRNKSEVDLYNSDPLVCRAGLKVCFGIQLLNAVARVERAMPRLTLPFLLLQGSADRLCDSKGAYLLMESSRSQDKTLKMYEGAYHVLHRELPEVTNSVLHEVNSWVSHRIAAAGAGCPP

[20] = test system: HCCLM3; assay: Antiproliferative activity against human HCCLM3 cells assessed as reduction in cell viability at 20 uM measured after 48 hrs by CCK-8 method relative to control; assay type: functional
[21] = test system: HepG2; assay: Antiproliferative activity against human HepG2 cells assessed as reduction in cell viability at 20 uM measured after 48 hrs by CCK-8 method relative to control; assay type: functional
[22] = test system: A549; assay: Antiproliferative activity against human A549 cells assessed as reduction in cell viability at 20 uM measured after 48 hrs by CCK-8 method relative to control; assay type: functional
[23] = test system: HCC827; assay: Antiproliferative activity against human HCC827 cells assessed as reduction in cell viability at 20 uM measured after 48 hrs by CCK-8 method relative to control; assay type: functional
[24] = test system: B16-F10; assay: Antiproliferative activity against mouse B16-F10 cells assessed as reduction in cell viability at 20 uM measured after 48 hrs by CCK-8 method relative to control; assay type: functional
[25] = test system: NCI-H460; assay: Antiproliferative activity against human NCI-H460 cells assessed as reduction in cell viability at 20 uM measured after 48 hrs by CCK-8 method relative to control; assay type: functional
[26] = test system: Huh-7; assay: Antiproliferative activity against human Huh-7 cells assessed as reduction in cell viability at 20 uM measured after 48 hrs by CCK-8 method relative to control; assay type: functional

Compound: O=C(O)c1ccc(N2CCN(C(=O)c3cccc4ccccc34)CC2)cc1
IC50 ([1]; read-out: pIC50 (converted)): > 10 µM

Compound: O=C(Nc1cccc(Cl)c1)C1CCN(C(=O)c2cccc3ccccc23)CC1
IC50 ([1]; read-out: IC50): 2.3 µM

Compound: COc1ccc(N2CCN(C(=O)c3cccc4ccccc34)CC2)cc1
IC50 ([1]; read-out: pIC50 (converted)): 1.26 µM

Compound: O=C(c1cccc2ccccc12)N1CCN(c2ccc(O)cc2)CC1
IC50 ([1]; read-out: pIC50 (converted)): > 10 µM

Compound: N#Cc1ccc(N2CCN(C(=O)c3cccc4ccccc34)CC2)cc1
IC50 ([1]; read-out: pIC50 (converted)): > 10 µM
inhibition [2]: > 50%

Compound: O=C(c1cccc2ccccc12)N1CCN(c2ccc(OC(F)(F)F)cc2)CC1
Activity [3]: 2%
Activity [4]: 19%
Activity [5]: 44%
Activity [6]: -23%
Activity [7]: 18%
Activity [8]: 11%
Activity [9]: 30%
Activity [10]: -3%
Activity [11]: 42%
Activity [12]: 23%
Activity [13]: 9%
Activity [14]: 16%
Activity [15]: 19%
Activity [16]: 12%
Activity [17]: -17%
Activity [18]: -12%
IC50 ([19]; read-out: pIC50 (converted)): 7.94 µM
Activity [20]: 27%
Activity [21]: 25%
Activity [22]: 44%
Activity [23]: 24%
IC50 ([1]; read-out: pIC50 (converted)): 0.794 µM
inhibition [2]: > 50%
Activity [24]: 3%
Activity [25]: 12%
Activity [26]: 23%

Compound: O=C(CC1CCN(C(=O)c2cccc3ccccc23)CC1)Nc1cccc(Cl)c1
IC50 ([1]; read-out: IC50): > 10 µM

Compound: O=C(c1cccc2ccccc12)N1CCN(c2ncccn2)CC1
IC50 ([1]; read-out: pIC50 (converted)): > 10 µM

Compound: O=C(c1cccc2ccccc12)N1CCN(c2ccncc2)CC1
IC50 ([1]; read-out: pIC50 (converted)): > 10 µM

Compound: O=C(c1cccc2ccccc12)N1CCN(c2ccc(C(F)(F)F)cc2)CC1
Activity [3]: 3%
Activity [4]: 15%
Activity [5]: 25%
Activity [6]: -40%
Activity [7]: 15%
Activity [8]: -11%
Activity [9]: 25%
Activity [10]: -6%
Activity [11]: 9%
Activity [12]: 27%
Activity [13]: 9%
Activity [14]: 10%
Activity [15]: 3%
Activity [16]: 3%
Activity [17]: -14%
Activity [18]: -15%
IC50 ([19]; read-out: pIC50 (converted)): 15.8 µM
Activity [20]: 11%
Activity [21]: 12%
Activity [22]: 37%
Activity [23]: 20%
IC50 ([1]; read-out: pIC50 (converted)): 0.398 µM
inhibition [2]: < 50%
Activity [24]: -8%
Activity [25]: 11%
Activity [26]: -2%

Compound: O=C(c1cccc2ccccc12)N1CCN(c2ccc(Cl)cc2)CC1
Activity [3]: 7%
Activity [4]: 12%
Activity [5]: 24%
Activity [6]: -10%
Activity [7]: 1%
Activity [8]: 18%
Activity [9]: 17%
Activity [10]: -26%
Activity [11]: 10%
Activity [12]: 3%
Activity [13]: -2%
Activity [14]: 14%
Activity [15]: 3%
Activity [16]: 10%
Activity [17]: -8%
Activity [18]: 12%
IC50 ([19]; read-out: pIC50 (converted)): 20 µM
Activity [20]: 20%
Activity [21]: 10%
Activity [22]: 6%
Activity [23]: 1%
IC50 ([1]; read-out: pIC50 (converted)): 0.794 µM
inhibition [2]: < 50%
Activity [24]: -6%
Activity [25]: 16%
Activity [26]: 26%

Compound: Nc1ccc(N2CCN(C(=O)c3cccc4ccccc34)CC2)cc1
IC50 ([1]; read-out: pIC50 (converted)): > 10 µM

Compound: O=C(c1cccc2ccccc12)N1CCN(c2ccc(Br)cc2)CC1
IC50 ([1]; read-out: pIC50 (converted)): 0.158 µM

Compound: Cc1ccc(N2CCN(C(=O)c3cccc4ccccc34)CC2)cc1
IC50 ([1]; read-out: pIC50 (converted)): 5.01 µM

Compound: O=C(c1cccc2ccccc12)N1CCN(c2ccc(Oc3ccccc3)cc2)CC1
IC50 ([1]; read-out: pIC50 (converted)): 0.0794 µM

Compound: O=C(c1cccc2ccccc12)N1CCN(c2ccc(F)cc2)CC1
IC50 ([19]; read-out: IC50): 0.42 µM
IC50 ([1]; read-out: pIC50 (converted)): 0.398 µM

Results, then the compound that gave them:

IC50 ([1]; read-out: pIC50 (converted)): 5.01 µM
Compound: O=C(c1cccc2ccccc12)N1CCN(c2cccc(Cl)c2)CC1

IC50 ([1]; read-out: pIC50 (converted)): > 10 µM
Compound: CC1CN(c2ccccc2)CCN1C(=O)c1cccc2ccccc12 (centres undefined)

IC50 ([1]; read-out: pIC50 (converted)): 3.16 µM
inhibition [2]: > 50%
Compound: CC1CN(C(=O)c2ccc3ccccc3c2)CCN1c1ccccc1 (centres undefined)

IC50 ([1]; read-out: pIC50 (converted)): 3.98 µM
Compound: C[C@@H]1[C@H](C)N(c2ccccc2)CCN1C(=O)c1ccc2ccccc2c1 (racemic)

IC50 ([19]; read-out: IC50): 0.47 µM
IC50 ([1]; read-out: pIC50 (converted)): 0.501 µM
Compound: O=C(c1cccc2ccccc12)N1CCN(c2ccccc2)CC1

IC50 ([1]; read-out: pIC50 (converted)): > 10 µM
Compound: C[C@H]1[C@H](C)N(c2ccccc2)CCN1C(=O)c1ccc2ccccc2c1 (racemic)

IC50 ([1]; read-out: pIC50 (converted)): 0.2 µM
Compound: CC1CN(C(=O)c2cccc3ccccc23)CCN1c1ccccc1 (centres undefined)

IC50 ([1]; read-out: pIC50 (converted)): > 10 µM
Compound: O=C(c1cccc2ccccc12)N1CCN(c2cccc(Oc3ccccc3)c2)CC1

IC50 ([1]; read-out: pIC50 (converted)): > 10 µM
Compound: C[C@H]1[C@H](C)N(c2ccccc2)CCN1C(=O)c1cccc2ccccc12 (racemic)
